Test results: the supplement of paper PMC7108870

Legend:
HEK293sieSTAT3(wt) [1] = experiment: drug sensitivity score (DSS), viability CellTiter-Glo (DSS (dimensionless)); higher = more growth inhibition; extreme values may be limits of the assay; conditions: 72 h; STAT3 variant: wild type
Method in brief: (§1)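 HEK293 cells carrying a STAT3-dependent luciferase reporter and overexpressing wild-type or mutant STAT3 (20 μl at 100,000 cells/ml) were added to compounds acoustically pre-plated at 5 concentrations in 10-fold dilutions in 384-well plates. After 72 hours at 37°C and 5% CO2, CellTox Green fluorescence (485/520 nm) and then CellTiter-Glo luminescence were read on a PHERAstar FS. Values were normalised to negative and positive control wells, and a drug sensitivity score based on dose-response curve area was computed in Breeze. Each value comes from one representative of two experiments.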

HEK293sieSTAT3(Y640F) [2] = experiment: as above; conditions: 72 h; STAT3 variant: Y640F (constitutively active)
Method in brief: as §1

HEK293sieSTAT3(wt) [3] = experiment: drug sensitivity score (DSS), cytotoxicity CellTox Green (DSS (dimensionless)); higher = more cytotoxic; extreme values may be limits of the assay; conditions: 72 h; STAT3 variant: wild type
Method in brief: as §1

HEK293sieSTAT3(Y640F) [4] = experiment: as above; conditions: 72 h; STAT3 variant: Y640F (constitutively active)
Method in brief: as §1

Row | Compound | drug sensitivity score (HEK293sieSTAT3(wt) [1]) | drug sensitivity score (HEK293sieSTAT3(Y640F) [2]) | drug sensitivity score (HEK293sieSTAT3(wt) [3]) | drug sensitivity score (HEK293sieSTAT3(Y640F) [4])
1 | Clc1ccc(Nc2nnc(Cc3ccncc3)c3ccccc23)cc1 [Vatalanib] (top concentration tested 10000 nM) | 1.89 | 0.9 | 0 | 0
2 | C[C@]1(c2nc3c(C(N)=O)cccc3[nH]2)CCCN1 [Veliparib] (top concentration tested 10000 nM) | 2.28 | 0 | 0.43 | 0
3 | CCCS(=O)(=O)Nc1ccc(F)c(C(=O)c2c[nH]c3ncc(-c4ccc(Cl)cc4)cc23)c1F [Vemurafenib] (top concentration tested 10000 nM) | 1.57 | 0 | 4.84 | 3.47
4 | CC1(C)CCC(CN2CCN(c3ccc(C(=O)NS(=O)(=O)c4ccc(NCC5CCOCC5)c([N+](=O)[O-])c4)c(Oc4cnc5[nH]ccc5c4)c3)CC2)=C(c2ccc(Cl)cc2)C1 [Venetoclax] (top concentration tested 1000 nM) | 0 | 0 | 0 | 0
5 | O=C(/C=C\n1cnc(-c2cc(C(F)(F)F)cc(C(F)(F)F)c2)n1)NNc1ccccn1 [Verdinexor] (top concentration tested 1000 nM) | 17.4 | 15.5 | 10.5 | 5.2
6 | CC[C@]1(O)C[C@@H]2CN(CCc3c([nH]c4ccccc34)[C@@](C(=O)OC)(c3cc4c(cc3OC)N(C)[C@H]3[C@@](O)(C(=O)OC)[C@H](OC(C)=O)[C@]5(CC)C=CCN6CC[C@]43[C@@H]65)C2)C1 [Vinblastine] (top concentration tested 1000 nM) | 21.8 | 19.8 | 19.4 | 5.1
7 | CC[C@]1(O)C[C@H]2CN(CCc3c([nH]c4ccccc34)[C@@](C(=O)OC)(c3cc4c(cc3OC)N(C=O)[C@H]3[C@@](O)(C(=O)OC)[C@H](OC(C)=O)[C@]5(CC)C=CCN6CC[C@]43[C@@H]65)C2)C1 [Vincristine] (top concentration tested 1000 nM) | 23.6 | 21.2 | 16.2 | 6.72
8 | CCC1=C[C@@H]2CN(C1)Cc1c([nH]c3ccccc13)[C@@](C(=O)OC)(c1cc3c(cc1OC)N(C)[C@H]1[C@@](O)(C(=O)OC)[C@H](OC(C)=O)[C@]4(CC)C=CCN5CC[C@]31[C@@H]54)C2 [Vinorelbine] (top concentration tested 10000 nM) | 34 | 30.6 | 19.2 | 5.27
9 | CS(=O)(=O)c1ccc(C(=O)Nc2ccc(Cl)c(-c3ccccn3)c2)c(Cl)c1 [Vismodegib] (top concentration tested 10000 nM) | 0.09 | 0.91 | 0.14 | 0
10 | CC[C@@H]1C(=O)N(C)c2cnc(Nc3ccc(C(=O)N[C@H]4CC[C@H](N5CCN(CC6CC6)CC5)CC4)cc3OC)nc2N1C(C)C [Volasertib] (top concentration tested 1000 nM) | 21.7 | 22.1 | 21.4 | 12.6
11 | O=C(CCCCCCC(=O)Nc1ccccc1)NO [Vorinostat] (top concentration tested 10000 nM) | 9.87 | 10.6 | 4.68 | 2.86
12 | CCn1c(=O)c(-c2cc[nH]n2)cc2c(C)nc(N)nc21 [Voxtalisib] (top concentration tested 10000 nM) | 9.9 | 8.35 | 3.54 | 0
13 | Oc1nc(-c2ccc(C(F)(F)F)cc2)nc2c1CSCC2 [XAV-939] (top concentration tested 10000 nM) | 1.46 | 0.17 | 0 | 0
14 | O=C(Nc1ccc(-c2ccnc(Nc3ccc(N4CCOCC4)cc3)n2)cc1)C1CCCN1 (configuration not stated) [XL019] (top concentration tested 10000 nM) | 2.07 | 1.98 | 0 | 0
15 | COc1cc2c(Nc3ccc(Cl)c(Cl)c3F)ncnc2cc1OC[C@@H]1C[C@@H]2CN(C)C[C@@H]2C1 [XL-647] (top concentration tested 1000 nM) | 0.88 | 1.72 | 0 | 0
16 | COCC[n+]1c2c(n(Cc3cnccn3)c1C)C(=O)c1ccccc1C2=O [YM155] (top concentration tested 10000 nM) | 34.7 | 30.4 | 27.5 | 12.8
17 | FC(F)c1nc2ccccc2n1-c1nc(N2CCOCC2)nc(N2CCOCC2)n1 [ZSTK474] (top concentration tested 10000 nM) | 16.6 | 12.8 | 6.5 | 0
18 | c1ccc(Cn2c(-c3ccc(OC[C@H](C4CCNCC4)n4c(-c5ccccc5)nc5ccccc54)cc3)nc3ccccc32)cc1 [deltarasin] (top concentration tested 10000 nM) | 8.74 | 7.04 | 8.33 | 7.78
